According to patent US10653693B2, “PRMT5 inhibitors and uses thereof” (Epizyme, Inc., priority 2014, dated 2020):
Read-outs that look alike come from different tables or passages of the source. Each block holds one molecule with its values, some of them ahead of it.

Tests used:
Z-138 = assay: Long-term proliferation (LTP) assay; type: cell-based; details: Homo sapiens, Table 3, read-out: LTP IC50
Protocol: FIG. 4 illustrates a representative sample of a long-term proliferation assay performed in the mantle cell lymphoma cell line Z-138. Assays were performed in technical triplicates, reading cell viability over 14 days. Growth curves (top panel) were calculated in Excel. IC50 (bottom panel) and IC90 (not shown) values were calculated in GraphPad Prism using a non-linear regression analysis, fixing the top and bottom of the curves to 100 and 0%, respectively. The IC50 values in the Table are indicated in microM. [table]

Granta-519 = assay: Long-term proliferation (LTP) assay; type: cell-based; details: Homo sapiens, Table 3, read-out: LTP IC50
Jeko-1 = assay: Long-term proliferation (LTP) assay; type: cell-based; details: Homo sapiens, Table 3, read-out: LTP IC50
Maver-1 = assay: Long-term proliferation (LTP) assay; type: cell-based; details: Homo sapiens, Maver1, Table 3, read-out: LTP IC50
Mino = assay: Long-term proliferation (LTP) assay; type: cell-based; details: Homo sapiens, Table 3, read-out: LTP IC50
[1] = system: sDMA methylation in Granta-519 cells; assay: sDMA western blot, 10 kDa band to total SmD3; type: cell-based; details: Homo sapiens, Table 3, read-out: sDMA Western IC50
Protocol: (§1) The measurement of the 10 kDa band was used to calculate the methylation IC50 values. […] Concentration-dependent decreases in the 10 kDa band were observed on day 4 in all cell lines tested with representative western blots shown for Z-138 and Maver-1 cell lines (FIG. 1). Levels of the 10 kDa band from the western blots were quantified by densitometry and ratios of 10 kDa band (postulated to be SmD3me2s) to total SmD3 were calculated to determine the IC50s (Table 2, n=1 for all samples).

[2] = system: sDMA methylation in Jeko-1 cells; assay: sDMA western blot, 10 kDa band to total SmD3; type: cell-based; details: Homo sapiens, Table 3, read-out: sDMA Western IC50
Protocol: as §1

[3] = system: sDMA methylation in Maver-1 cells; assay: sDMA western blot, 10 kDa band to total SmD3; type: cell-based; details: Homo sapiens, Maver1, Table 3, read-out: sDMA Western IC50
Protocol: as §1

[4] = system: sDMA methylation in Mino cells; assay: sDMA western blot, 10 kDa band to total SmD3; type: cell-based; details: Homo sapiens, Table 3, read-out: sDMA Western IC50
Protocol: as §1

[5] = system: sDMA methylation in Z-138 cells; assay: sDMA western blot, 10 kDa band to total SmD3; type: cell-based; details: Homo sapiens, Table 3, read-out: sDMA Western IC50
Protocol: as §1

Maver-1 cells = assay: Annexin-V staining (apoptosis); type: cell-based, Human; details: after 4 days of treatment
Protocol: (§2) The mechanism of cell killing was evaluated in the MCL cell lines, Z-138 and Mayer-1. Cells were treated at various time points with 2 nM, 20 nM, and 200 nM of Formula B. Apoptosis was assessed by measuring the percentage of Annexin-V positive cells and the assay was performed in triplicate.

Z-138 cells = assay: Annexin-V staining (apoptosis); type: cell-based, Human; details: 200 nM
Protocol: as §2

Z-138 xenograft model = assay: 21 day mantle cell lymphoma xenograft study: TGI and tumor methyl mark; type: in vivo; details: Z-138 xenograft; all doses tested; day 21
Protocol: Data presented in this example were determined after analysis of 21 day samples of mantle cell lymphoma tumors. Cmin PK samples were taken prior to the last dose on day 21. Tumors were excised, weighed and processed for methyl mark. Methyl mark reduction was measured in tumor samples and is shown as percent of vehicle control (POC). […] Tumor growth inhibition was determined using tumor volume reduction at day 21 expressed as a percent of POC. In vivo inhibition curves were also generated and IC50 values determined. Plasma levels from each group are averaged from 5 animals. […] The average body weight loss (BWL) in all groups was <6%. All doses tested show >50% TGI. […] The average BWL in all groups was <4%. The average BWL in all groups was <8%, except in the 100 mg/kg does group were 4 animals exceeded BWL of 15%.

Maver-1 xenograft model = assay: as above; type: in vivo; details: all doses tested, day 21
Protocol: (§3) Data presented in this example were determined after analysis of 21 day samples of mantle cell lymphoma tumors. Cmin PK samples were taken prior to the last dose on day 21. Tumors were excised, weighed and processed for methyl mark. Methyl mark reduction was measured in tumor samples and is shown as percent of vehicle control (POC). Both SYM11 and sDMA Elisa were used to measure methyl mark and the data shown is averaged from 10 animals. Tumor growth inhibition was determined using tumor volume reduction at day 21 expressed as a percent of POC. In vivo inhibition curves were also generated and IC50 values determined. Plasma levels from each group are averaged from 5 animals. […] The average body weight loss (BWL) in all groups was <6%. All doses tested show >50% TGI. […] The average BWL in all groups was <4%. The average BWL in all groups was <8%, except in the 100 mg/kg does group were 4 animals exceeded BWL of 15%.

[6] = Body weight loss in Z-138 xenograft study; type: in vivo
Protocol: as §3

MiaPaca-2 cells = assay: 2D-proliferation assay; type: cell-based; details: Homo sapiens
Protocol: (§4) Calculation of growth inhibitory concentrations (g IC50) at Days 4, 6 and 13 treated with Formula D. 2D-proliferation assays were also performed on pancreatic cell lines treated with Formula D. Treatment of both Miapaca-2 and Panc-1 cells with Formula D results in a decrease in cell proliferation, as shown in FIG. 19.

Panc-1 cells = assay: 2D-proliferation assay; type: cell-based; details: Homo sapiens
Protocol: as §4

Miapaca-2 = assay: Foci formation and cellular morphology; type: cell-based
Protocol: (§5) FIG. 18 illustrates the effect of foci formation and cellular morphology in pancreatic cancer cell lines (Miapaca-2, Panc-1). The effects of treatment with Formula D on pancreatic cancer cell morphology was also tested.

Panc-1 = assay: Foci formation and cellular morphology; type: cell-based
Protocol: as §5

IC50 [1]: 2 nM
IC50 [2]: 8.7 nM
IC50 [3]: 0.3 nM
IC50 [4]: 7 nM
IC50 [5]: 14 nM
SMILES: CC(=O)N1CCC(Nc2cc(C(=O)NC[C@H](O)CN3CCc4ccccc4C3)ncn2)CC1 [Formula A]
IC50 (Z-138): 5.7 nM
IC50 (Granta-519): 4.7 nM
IC50 (Jeko-1): 11.3 nM
IC50 (Maver-1): 32 nM
IC50 (Mino): 106 nM
cells stained positive for Annexin-V (Maver-1 cells): 8%
increase in Annexin-V positive cells (Z-138 cells; after 4 days): 12%
increase in Annexin-V positive cells (Z-138 cells; after 6 days): 40%
Tumor growth inhibition (TGI) (Z-138 xenograft model): > 50%
Tumor growth inhibition (TGI) (Maver-1 xenograft model): > 50%
body weight loss (BWL) exceeded by 4 animals ([6]; 100 mg/kg dose group): > 15%
average body weight loss (BWL) in all groups ([6]; 21 days): < 8%

SMILES: O=C(COc1cccc2cccnc12)NC[C@@H](O)CN1CCc2ccccc2C1 [Formula D]
IC50 (MiaPaca-2 cells; MIA PaCa-2, 96 h, Day 4, read-out: growth inhibitory concentration (gIC50)): 349 nM
IC50 (MiaPaca-2 cells; MIA PaCa-2, 144 h, Day 6, read-out: growth inhibitory concentration (gIC50)): 269 nM
IC50 (MiaPaca-2 cells; MIA PaCa-2, 312 h, Day 13, read-out: growth inhibitory concentration (gIC50)): 929 nM
IC50 (Panc-1 cells; 96 h, Day 4, read-out: growth inhibitory concentration (gIC50)): 1990 nM
IC50 (Panc-1 cells; 144 h, Day 6, read-out: growth inhibitory concentration (gIC50)): 1240 nM
IC50 (Panc-1 cells; 312 h, Day 13, read-out: growth inhibitory concentration (gIC50)): 3900 nM
effect on pancreatic cancer cell morphology / growth (Miapaca-2): inhibition of cancer cell growth
effect on pancreatic cancer cell morphology / growth (Panc-1): inhibition of cancer cell growth
